Where two headings read alike, the source gives them in different places.
Columns and labels:
[1] = cited from earlier work

| Water Solubility (water) | Compound | also measured |
| --- | --- | --- |
| > 250 g/100 ml H2 O | mono-6-dihydroxyphosphonyl-6-deoxy β-CD [Monophosphoric acid β-CD] |  |
|  | Hydroxypropyl β-CD | Water Solubility [1]: 115 g/100 ml H2 O |
| > 300 g/100 ml H2 O | O=C(O)COCC1OC2OC3C(COCC(=O)O)OC(OC4C(COCC(=O)O)OC(OC5C(COCC(=O)O)OC(OC6C(COCC(=O)O)OC(OC7C(COCC(=O)O)OC(OC8C(COCC(=O)O)OC(OC1C(O)C2O)C(O)C8O)C(O)C7O)C(O)C6O)C(O)C5O)C(O)C4O)C(O)C3O (stereo not drawn) [Heptacarboxylic acid β-CD] |  |
|  | C[N+](C)(C)CC1OC2OC3C(CO)OC(OC4C(CO)OC(OC5C(CO)OC(OC6C(CO)OC(OC7C(CO)OC(OC8C(CO)OC(OC1C(O)C2O)C(O)C8O)C(O)C7O)C(O)C6O)C(O)C5O)C(O)C4O)C(O)C3O.[Cl-] (stereo not drawn) [Monotrimethylammonium (chloride) β-CD] | Water Solubility (25° C.): > 200 g/100 ml H2 O |
